# Reference: patent US20250230146A1, “CARBOCYCLIC NUCLEOSIDE, OLIGONUCLEOTIDE AND PREPARATION METHODS THEREFOR AND MEDICAL USES THEREOF” (REDFIELD PHARMACEUTICAL INC., priority 2023, published 2025)
# Assays:
# [1] = tested on: sense strand (5′-AAAAAAAAAA-3′; SEQ ID NO: 4); assay: Melting temperature (Tm) test of antisense strand annealed with sense strand; details: duplex with sense strand 5′-AAAAAAAAAA-3′; UV absorption at 260 nm
# Procedure: A mixture of 1 mL of the sense strand (0.5 OD/mL) and 1 mL of the antisense strand (0.5 OD/mL) was mixed and stirred evenly, heated at 90° C. for 10 min, and then cooled to room temperature. A Tm value of the sample was measured using an ultraviolet spectrophotometer (Agilent, Cary 3500 UV-Vis), the sample was placed in a cuvette with a cap and a temperature probe, a temperature was set to be raised from 20-25° C. to 70-80° C. at a rate of 0.5° C. or 1.0° C. per minute, and ultraviolet absorption at 260 nm was measured at an interval of 0.5° C.
# [2] = tested on: snake venom phosphodiesterase (Crotalus admanteus venom phosphodiesterase (CAVP))
substance,measurement,setting,value
5′-TTTTTTTTTT-3′ [Control antisense strand],Tm,[1],43 °C
same,degradation by nuclease (in words),[2],almost completely degraded
